Source: publication PMC12476087, “Loading of Dicarboxylatoplatinum(II)‐NHC Complexes in Bacterial Ghosts as an Advanced Development in Cancer Therapy” (Archiv Der Pharmazie, 2025)

Columns and labels:
A2780wt cells = experiment: Cellular platinum accumulation (HR CS AAS); assay type: cell-based; conditions: free complex, 25 µM, 24 h
Protocol: Stock solutions of the platinum complexes in DMF were freshly prepared and the stocks for the loaded compounds were freshly thawed. […] Cell pellets were prepared by removing the medium, washing twice with PBS, and detaching the cells with accutase (GE Healthcare, Chicago, IL, USA). Subsequently, cells were pelleted by centrifugation (4°C, 380g, 3 min). Each pellet was twice washed with PBS and then stored at −20°C until further analyses.
Cellular accumulation was quantified by measuring the total platinum content using HR CS AAS. […] The resulting lysates were analyzed using AAS at the wavelength λ = 265.9450 nm with a high resolution continuous source (HR CS) spectrometer (contrAA 700; Analytik Jena, Jena, Germany). The ASpect CS software (version 2.3.1.0; Analytik Jena, Jena, Germany) was used to handle the spectrometer. The graphite furnace (GF) sub‐technique was used for this. In the latter, atomization takes place electrothermally in pyrolytically coated graphite tubes bearing an integrated platform (Analytik Jena, Jena, Germany). The GF program is outlined in Supporting Information S2: Table S8. The samples stored in polystyrene vials (0.5 mL; Gesellschaft für Analysentechnik, Salzwedel, Germany) were injected onto this platform employing an MPE 60 autosampler (Analytik Jena, Jena, Germany). As the purge and the protective gas served argon (Alphagaz 1, 99.999%, Air Liquide, Düsseldorf, Germany). The mean integrated absorbance of three injections was adduced during all measurements. […] As the degree of cellular accumulation is indicated as amount of compound (pmol) in the cell lysate relative to its protein mass (mg), the protein content of each sample was determined. Therefore, the method described by Bradford was used. […] Each 20 µL of either albumin standards or the cell lysates were pipetted into a 96‐well plate (Sarstedt, Nürmbrecht, Germany), followed by adding 200 µL of Bradford's reagent (Roti‐Nanoquant, Carl Roth, Karlsruhe, Germany; diluted 1:5 with ultrapure water). After incubating (5 min, rt), the absorbance (λ = 595 nm) was read with a microplate reader (Tecan Infinite M 1000 Pro, Männedorf, Switzerland). All calibration standards and lysates were measured in duplicates.

[1] = Stability in D2O (1H NMR); assay type: physicochemical; conditions: for behaviour in D2O (aquation): rt, up to 24 h
Protocol: Stability of the complexes 1–4 in CDCl3, CD3OD, CD3CN, DMF‐d7, and D2O was monitored by ^1H NMR spectroscopy at ambient temperature. Solutions of the complexes (approximately 3 mg/mL) were prepared in each solvent, and ¹H NMR spectra were recorded periodically over 24 h.

[2] = tested on: caspase‐3 in A2780wt cells; experiment: Caspase‐3 activity assay (ApoTox‐Glo), A2780wt; assay type: cell-based; conditions: w/o BGs, 25 µM, 24 h
Protocol: Furthermore, caspase‐3 activation serves as a primary hallmark of apoptosis. Therefore, we evaluated this induction with a luminescence‐based caspase‐3 activity assay on A2780wt cells.
The caspase‐3 assay was performed to investigate the induction of apoptosis by the compounds. It was performed by employing the commercially available ApoTox‐Glo Triplex Assay (Promega Corporation, Madison, USA), which specifically correlates cell viability and toxicity to apoptosis. In brief, A2780wt and A2780cis cells, respectively, were seeded at a density of 8 × 10^3 cells per well into an opaque‐walled 96‐well plate with solid bottoms. […] After incubation, 20 µL of the provided viability/toxicity reagent was added and incubated for further 30 min on an orbital shaker at 37°C. […] Then, 100 µL of Caspase‐Glo 3/7 reagent was added, gently shaken for 30 s and further incubated for 30 min. The caspase activation was determined via the measurement of the luminescence. Analysis was performed on the BioTek Synergy H1 (Agilent Technologies, Santa Clara, USA).

[3] = Stability in RPMI 1640 cell culture medium (HPLC‐MS); assay type: physicochemical; conditions: RPMI 1640 without FCS, 1 h incubation, extracted ion chromatograms
Protocol: Additional stability studies in aqueous media and RPMI 1640 (without FCS) were carried out using RP‐HPLC‐MS. For this purpose, 0.5 mM solutions of complexes 1 and 2 were prepared in Milli‐Q water and RPMI 1640. Samples were analyzed by HPLC‐MS immediately after preparation and at selected time points during 24 h of incubation at rt. HPLC‐MS measurements were performed on Agilent 1260 system hyphenated to an MS Single Quad detector from Agilent with ESI (LC‐MSD from Agilent Technologies, Santa Clara, CA, USA). As stationary phase, a Gemini C18 110 Å; 150 × 4.6 mm; 3.0 µm particles (Phenomenex Ltd.; Aschaffenburg, Germany) column was employed and equipped with a 4 × 3 mm guard column of the identical material. The mobile phase flow was set to 0.8 mL/min; and consisted of a mixture of water (solvent A) – MeOH (solvent B) using gradient elution (0 min 5% B; 3 min 5% B; 17 min 98% B; 20 min stop; post time 10 min). The oven temperature was maintained at 30°C and the MS analysis was performed with split flow 1:5 of the eluate in positive ionization mode (capillary voltage 4.5 kV; source temperature 320°C; dry gas 10 L/min; nebulizer gas pressure 30 psi, scan range m/z 50–1500). The injection volume of the sample solution (V sample) was set to 10 µL. Sample degradation was evaluated by integration of the extracted ion chromatograms at the indicated m/z ± 0.5 (based on the monoisotopic peaks).

[4] = Stability in aqueous solution (RP‐HPLC‐MS); assay type: physicochemical; conditions: 0.5 mM in water, rt; m/z 446.1 (1, 20 h), m/z 602.2 (2)
Protocol: Samples were analyzed by HPLC‐MS immediately after preparation and at selected time points during 24 h of incubation at rt. […] As stationary phase, a Gemini C18 110 Å; 150 × 4.6 mm; 3.0 µm particles (Phenomenex Ltd.; Aschaffenburg, Germany) column was employed and equipped with a 4 × 3 mm guard column of the identical material. […] The oven temperature was maintained at 30°C and the MS analysis was performed with split flow 1:5 of the eluate in positive ionization mode (capillary voltage 4.5 kV; source temperature 320°C; dry gas 10 L/min; nebulizer gas pressure 30 psi, scan range m/z 50–1500). The injection volume of the sample solution (V sample) was set to 10 µL. Sample degradation was evaluated by integration of the extracted ion chromatograms at the indicated m/z ± 0.5 (based on the monoisotopic peaks).

Molecule | uptake into A2780wt cells (total cellular platinum content) (A2780wt cells) [pmol/µg] | behaviour in D2O (aquation) [1] | complex that had released its acetates ([1]; within 5 min of dissolution) | x-fold caspase-3 induction compared to untreated cells [2] [x-fold] | concentration remaining in RPMI 1640 [3] | change of HPLC‐MS signal intensity in aqueous solution [4]
CCN1[C]([Pt]([O]C(C)=O)([O]C(C)=O)[SH](C)(C)=O)N(CC)c2ccccc21 [Compound 1, (SP‐4‐2)‐Diacetato(1,3‐diethylbenzimidazol‐2‐ylidene)(dimethylsulfoxide)platinum(II)] | 1.1 | No significant spectral changes were observed during incubation for 24 h at rt | over 70% | 2.64 ± 0.32 | approximately 37% | No significant decrease in the intensity of this signal
CCN1[C]([Pt]([O]C(=O)C(Cl)Cl)([O]C(=O)C(Cl)Cl)[SH](C)(C)=O)N(CC)c2ccccc21 [Compound 3, (SP‐4‐2)‐Bis(dichloroacetato)(1,3‐diethylbenzimidazol‐2‐ylidene)(dimethylsulfoxide)platinum(II)] | 1.17 | – | – | 3.06 ± 1.20 | – | –
(SP‐4‐2)‐Bis(dichloroacetato)bis(1,3‐diethylbenzimidazol‐2‐ylidene)platinum(II) [Compound 4] | 1.87 | – | – | 1.89 ± 0.03 | – | –
(SP‐4‐2)‐Diacetatobis(1,3‐diethylbenzimidazol‐2‐ylidene)platinum(II) [Compound 2] | 0.82 | fast initial aquation | – | 0.39 ± 0.13 | ~7% | progressively decreased over time
